The assay relates to hyperpigmented spots. As to the kind of experiment: In vivo testing for hyperpigmented spot reduction and melanin evenness (9 week split face study). Also on record: species or system humans. Conditions: for Melanin Evenness versus Vehicle / NC2 SAF (spot area fraction) versus Vehicle: vehicle+0.55% FSF or vehicle+5% Niacinamide, twice daily, split face. The procedure:
A 9 week in-vivo study was conducted using a round robin, vehicle controlled, split face design including a 1 week normalization period with 270 subjects. The 270 subjects were screened according to inclusion/exclusion criteria which included the following:
Has hyperpigmented spots around cheek and/or periorbital area on both sides of the face.
Has at least 1 hyperpigmented spot of 8-10 mm diameter, 4 spots of 4-6 mm or 10 spots of 2-3 mm diameter (sun spots, freckles, or melasma spots) or equivalent spot area in the cheek area on each side of their face.
Is willing to refrain from sun exposure by using supplied UV lotion and physical UV blocks, such as a hat, to avoid facial sunburn, tanning or wind burn.
Has been diagnosed as having atopy, eczema, psoriasis, or other chronic skin diseases.
Has obvious signs of facial skin disease (e.g., more than 5 pimples, areas of red scaling skin, superficial thin blood vessels, etc.).
Has significant areas of discoloration or scarring on the face.
Has more than 3 prominent moles (<3 mm) on the face.
Two hundred and seventy subjects were recruited for the study. […] Each subject received two coded test formulations for twice daily application to each half of the face. Images of the facial treatment sites were captured at baseline (week 0), and after 4 and 8 weeks of treatment and analyzed for changes to skin color and spot size and color. The product formulations included a vehicle control, the vehicle+0.55% FSF, and the vehicle+5% vitamin B3 compound (Niacinamide).
Noncontact spectrophotometric intracutaneous analysis (SiaScopy, Astron Clinica, UK) was used to collect and analyze the subject images. The method used a digital camera (e.g., Fuji S2 digital SLR) as a […] and a flash lighting source (e.g., Sigma Super flash light source) to recover facial chromophore information. A cross polarized filter was placed in front of the camera and the lighting source to eliminate specular reflection.
Chromophore mapping of the concentration and distribution of eumelanin (melanin) and oxyhaemoglobin produces grayscale concentration maps of each of these chromophores. Image analysis software, such as Optimas 6.5, can be used to select a region of interest in each chromophore map from which mean grayscale values and spot area fraction are calculated. Spot area fraction refers to total area occupied by melanin spots as a percentage of the whole region of interest. A description of one type of chromophore mapping can be found in EP 1,810,614 and “The Distribution of Melanin in Skin Determined In Vivo”, British Journal of Dermatology, 2007, pp 620-628.
Table 15 summarizes the image analysis data, wherein SAF is the mean Spot Area Fraction and A SAF is the mean change in Spot Area Fraction from baseline (week 0).

The values that follow come from patent publication US20120201768A1, “COSMETIC COMPOSITIONS COMPRISING FICUS SERUM FRACTION AND METHODS TO REDUCE THE APPEARANCE OF SKIN HYPERPIGMENTATION” (priority 2010, published 2012).

On to `NC(=O)c1cccnc1` [Niacinamide], for which, under “4 weeks”, the “Melanin Evenness versus Vehicle” value is recorded as “ns (ns = not significant (p > 0.3))” and the “NC2 SAF (spot area fraction) versus Vehicle” value is given as “ns (ns = not significant (p > 0.3))”. For the same molecule, for the setting “8 weeks”, the “Melanin Evenness versus Vehicle” value was “Sig” and the “NC2 SAF (spot area fraction) versus Vehicle” value is on record as “Sig”. Also, the “reduction of hyperpigmented spots (in words)” value (after 8 weeks, vehicle+0.55% FSF, vehicle+5% vitamin B3, control) is “best performer”.
